# System: A II-infused rat
# Test: A II-infused rat model (antihypertensive action)
# Type: in vivo
# Settings: 3 mg/kg id, average, four hours post-administration, anesthetized ganglion-blocked rats with A II infusion
# Protocol: In accordance with their ability to antagonize angiotensin II, the compounds of this invention show antihypertensive action in the following A II-infused rat model. Procedure: Rats are anesthetized with Dial-Urethane (0.60 mL/kg, ip) and the trachea cannulated with PR 240. Either one femoral artery and both femoral veins or the carotid artery and the corresponding jugular vein are cannulated with PE 50. If the jugular vein is cannulated, two cannulas are placed in the one vein. The initial portion of the duodenum (just distal to the stomach) is cannulated with PE 50 via a small midline incision. Arterial pressure and heart rate are measured from the arterial cannula. Ten to 15 min are allowed following surgery for stabilization of arterial pressure. Ganglion blockade is then produced by intravenous administration of mecamylamine at 3 mg/kg (1 mL/kg of a 3 mg/mL solution). Ganglion blockade causes a fall in arterial pressure of about 50 mmHg. Mecamylamine is given every 90 min throughout the remainder of the experiment. An A II infusion is then begun into the other venous cannula at 0.25 µg/kg min (at 9.6 µL/min). The A II infusion returns arterial pressure to or slightly above the control level. Once arterial pressure has stabilized with the A II infusion, baseline values for mean arterial pressure (MAP) and heart rate are taken. […]
smiles,measurement,value
"Cc1nc(C)c2c(n1)N(Cc1ccc(-c3ccccc3-c3nnn[nH]3)cc1)C(=O)C2 [Example 1, 2,4-Dimethyl-5,7-dihydro-7-[[2'-(1H-tetrazol-5-yl)[1,1-bi-phenyl]-4-yl]methyl]-6H-pyrrolo[2,3-d]pyrimidin-6-one]",lowered the A II dependent blood pressure,41%

# From patent EP0539086B1, “Condensed pyrimidine derivatives and their use as angiotensine II antagonists” (AMERICAN HOME PRODUCTS CORPORATION, priority 1991, dated 1993)
